This note sets out measurements from PubChem BioAssay (NCI).

Molecules are shown by their SMILES. Values joined by “and” are separate entries in the source; they are usually repeats but may differ in a detail not shown here. Identical values can stand only once.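 Test compounds were applied to cells in 96-well plates for 48 hours at 5 doses. GI50 marks 50% less growth. TGI denotes the concentration required for complete inhibition of growth.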

Experiment in all cases: NCI anticancer screen, dose series, 48 h
Assay [1] relates to NCI-H226 lung.
Assay [2] relates to SK-MEL-2 melanoma.
For assay [3], the system named is HOP-92 NSCLC.
The test system of assay [4] is SK-MEL-28 melanoma.
For assay [5], the system named is CAKI-1 renal.
Assay [6] relates to HT29 colon.
The test system of assay [7] is IGROV1 ovarian.
Assay [8] deals with M14 melanoma.
In assay [9] the test system is MOLT-4 leukemia.
In assay [10] the test system is UO-31 renal.

On to `CC(=O)N/C(=C\c1ccc(/C=C(\NC(C)=O)c2nc3ccc(Cl)cc3[nH]2)cc1)c1nc2ccccc2[nH]1`, for which the TGI in [1], in assay [2], in assay [3], in [4], in [5] and in assay [6] was over 100 µM throughout. Further, the TGI in assay [7], in assay [8] and in assay [9] was over 100 µM in each case.

In the case of `Cc1c(CCCl)c(=O)n2c([nH]c3ccccc32)c1C#N`, the TGI in [1] turned out to be 4.84 µM; in [2], 4.46 µM; in [3], 2.82 µM; in [4], 3.72 µM; in [5] it was 2.77 µM; in assay [6], 3.49 µM. Besides, the TGI amounted to 3.4 µM in [7], 2.99 µM in assay [8], 3.51 µM in assay [10] and 1.44 µM in [9].

Turning to `CCN(CC)CCC1CC/C(=C\c2ccc(OC)cc2)C1=O` (stereo not drawn), the TGI in assay [1], in assay [2], in assay [3], in assay [4], in assay [5] and in assay [6] was over 100 µM throughout. Moreover, the TGI in assay [7], in assay [8], in assay [10] and in assay [9] was over 100 µM throughout.

On to `CC(=O)OCC1OC(n2c(-c3ccccc3)cc(-c3ccco3)c(C#N)c2=O)C(OC(C)=O)C(OC(C)=O)C1OC(C)=O` (stereo not drawn), for which the TGI is over 100 µM in [1]; 36.9 µM and > 100 µM in assay [2]; 21.8 µM and > 100 µM in assay [3]; 67 µM and > 100 µM in [4]; over 100 µM in [5]; over 100 µM in [6]. Also, the TGI in assay [7] was over 100 µM; in assay [8], over 100 µM; in [10], > 100 µM and 67.6 µM; in assay [9], over 100 µM. The GI50 in [3] is 9.2 µM and 50.8 µM; in assay [8], over 100 µM; in assay [10], > 100 µM and 21.2 µM.

Regarding `COC1=CC23C=CC1[C@@H](c1ccccc1)C2=C(C)C(=O)N3C(=O)NC1CCCCC1` (stereo partly drawn), the TGI in assay [1] was 46.6 µM; in assay [2], 39.5 µM; in [3] it was 47.5 µM; in assay [4] it was 42.2 µM; in assay [5], 45.1 µM; in [6], 41.1 µM. Also, the TGI in assay [7] is over 100 µM; in [8] it was 38.8 µM; in assay [10], 54.7 µM; in assay [9], 45.9 µM.

With `CN(C(=O)c1ccc(Cl)s1)C(=S)N(C)C(=O)c1ccc(Cl)s1`, the TGI in assay [1], in assay [2], in assay [3], in assay [4], in [5] and in assay [6] was over 10 µM in each case. In addition, the TGI in [7], in assay [8], in assay [10] and in [9] was over 10 µM in each case.

With `CC1(C)C(=O)N(c2ccccc2)C(=O)N1c1nc2ccccc2[nH]1`, the TGI in [1], in [2], in assay [3], in [4], in assay [5] and in assay [6] was over 100 µM each time. In addition, the TGI in [7], in assay [8], in [10] and in [9] was over 100 µM throughout.

Turning to `CC1(C)C=CC[C@]2(C)[C@H]3CC[C@@H]4[C@H]5[C@H](C(=O)/C=C/c6cccnc6)CC[C@]5(CO)CC[C@@]4(C)[C@]3(C)CC[C@@H]12`, the GI50 in [1] is 1.33 µM; in [2] it was 1.28 µM; in assay [3], 0.66 µM; in [4] it was 1.54 µM; in assay [5], 1.06 µM; in assay [6], 1.23 µM. Moreover, the GI50 is 1.31 µM in assay [7], 1.21 µM in assay [10] and 0.539 µM in [9]. In addition, the TGI was found to be 3.08 µM in assay [1]; 2.76 µM in assay [2]; 2.05 µM in [3]; 2.98 µM in [4]; 2.33 µM in [5]; 2.68 µM in assay [6]. Further, the TGI in [7] turned out to be 2.77 µM; in [10], 2.45 µM; in assay [9] it was 2.94 µM.

In the case of `CC(=O)NC(CCCCNC(=O)OCc1ccccc1)C(=O)NCc1ccccc1` (stereo not drawn), the TGI in assay [1], in [2], in assay [3], in assay [4], in assay [5] and in assay [6] was over 100 µM each time. For the same molecule, the TGI in [7], in [8], in assay [10] and in [9] was over 100 µM throughout.

For `COc1ccc(-c2c(C3=NCCN3)nnn2-c2ccccc2)cc1`, the TGI in [1], in assay [2], in [3], in assay [4], in assay [5] and in assay [6] was over 100 µM in each case. In addition, the TGI in [7], in assay [8], in assay [10] and in assay [9] was over 100 µM each time.

Take `COc1ccc2c(c1)sc1nc(-c3ccccc3)c(-c3ccsc3)n12`: the GI50 is 2.17 µM in assay [1]; 9.72 µM in assay [2]; 9.89 µM in assay [3]; 4.9 µM in [4]; 5.04 µM in assay [5]; 2.95 µM in [6]. Further, the GI50 was 6.53 µM in assay [7], 2.64 µM in [8], 6.03 µM in [10] and 4.24 µM in assay [9]. The TGI is 18.1 µM in [1]; over 100 µM in [2]; over 100 µM in [3]; over 100 µM in assay [4]; over 100 µM in [5]; 10.5 µM in assay [6]. For the same molecule, the TGI in [7], in assay [8], in assay [10] and in assay [9] was over 100 µM throughout.

For the molecule `Cc1cc(/C=C2\SC(=Nc3ccccc3)N(C3CCCC3)C2=O)c(C)n1-c1ccc(Cl)cc1`, the GI50 in [1], in [2], in assay [3], in assay [4], in [5] and in assay [6] was over 100 µM each time. The GI50 in assay [7], in assay [10] and in assay [9] was over 100 µM in each case. Besides, the TGI in assay [1], in assay [2], in assay [3], in assay [4], in assay [5] and in assay [6] was over 100 µM in each case. Moreover, the TGI in assay [7], in assay [10] and in assay [9] was over 100 µM in each case.

With `CC(=O)O[C@H]1C(N(C)C(=O)c2ccccc2)CC[C@]2(C)C3CC[C@@]4(C)C(CC(O)[C@@H]4C(C)N(C)C)[C@@H]3CCC12` (stereo partly drawn), the TGI in assay [1], in assay [2], in assay [3], in assay [4], in [5] and in assay [6] was over 100 µM each time. The TGI in assay [7], in assay [8] and in assay [9] was over 100 µM in each case.

For `Cc1ccc(C(=O)c2oc3ccc4c(C)cc(=O)oc4c3c2C)cc1`, the GI50 was 11.7 µM in assay [1]; 35 µM in assay [2]; 27.1 µM in assay [3]; 6.37 µM in [4]; 5.78 µM in [5]; 8.9 µM in assay [6]. Also, the GI50 in assay [7] is 13.8 µM; in assay [10] it was 11.4 µM; in [9], 63.6 µM. Besides, the TGI is over 100 µM in [1]; over 100 µM in [2]; 95.2 µM in [3]; over 100 µM in assay [4]; over 100 µM in assay [5]; over 100 µM in assay [6]. Moreover, the TGI in [7], in assay [10] and in assay [9] was over 100 µM each time.

As to `N#CCCc1nc2ccc(Br)cc2c(=O)n1CCO`, the TGI in assay [1], in assay [2], in [3], in assay [4], in assay [5] and in assay [7] was over 100 µM throughout. Moreover, the TGI in [8], in assay [10] and in assay [9] was over 100 µM each time.

For the molecule `O=C(Oc1ccc(O)c2c(=O)n3c(cc12)[nH]c1ccccc13)c1ccccc1`, the GI50 in assay [1] is 18.9 µM; in assay [2], 21 µM; in assay [3] it was 23.8 µM; in assay [4], 24.9 µM; in assay [6], 33.5 µM; in assay [7] it was 10.6 µM. For the same molecule, the figures for the GI50 in assay [8], in assay [10] and in [9] were 17.9 µM, 2.19 µM and 16.4 µM, respectively. Besides, the TGI is 64.2 µM in [1]; over 100 µM in [2]; 53.4 µM in [3]; 76.4 µM in assay [4]; over 100 µM in assay [6]; 24.6 µM in [7]. Besides, the figures for the TGI in [8], in [10] and in assay [9] were 37 µM, 10.1 µM and 62.6 µM, respectively.

For the molecule `O=[N+]([O-])c1c(/C=N/Nc2ccccc2)oc(-c2ccc3c(c2)OCO3)c1-c1ccc2c(c1)OCO2`, the TGI is over 100 µM in assay [1]; 24.2 µM in assay [2]; over 100 µM in [3]; over 100 µM in assay [4]; over 100 µM in assay [5]; over 100 µM in [6]. In addition, the TGI in [7] and in assay [8] was over 100 µM each time.

Regarding `COc1cc(OC2OC(C)C(O)C(O)C2O)cc2oc(-c3ccc(O)cc3)c(CC=C(C)C)c(=O)c12` (stereo not drawn), the GI50 in [1] is 21.9 µM; in assay [2] it was 35.9 µM; in [3], 12.4 µM; in [4], 23.4 µM; in assay [5] it was 14.1 µM; in assay [7], 12.9 µM. Further, the GI50 is 19.2 µM in assay [8], 16.2 µM in [10] and 3.45 µM in assay [9]. In addition, the TGI was 69.7 µM in assay [1]; over 100 µM in assay [2]; 54.8 µM in [3]; 59.6 µM in [4]; 40.7 µM in [5]; 51.9 µM in assay [7]. Also, the TGI in [8] was determined as 39.8 µM; in assay [10] it was 64.6 µM; in [9], 17.7 µM.

With `c1ccc2c(c1)[I+]c1ccccc1-2`, the GI50 is over 50 µM in [1]; over 50 µM in assay [2]; 18.9 µM in [3]; over 50 µM in [4]; over 50 µM in assay [5]; 38.6 µM in assay [6]. Further, the GI50 in assay [7], in assay [10] and in assay [9] was over 50 µM each time. In addition, the TGI in assay [1], in [2], in assay [3], in [4], in assay [5] and in [6] was over 50 µM throughout. The TGI in assay [7], in assay [10] and in assay [9] was over 50 µM throughout.

Regarding `O=C(C(O)c1cn(Cc2ccccc2)c2ccccc12)N1CCCCC1` (stereo not drawn), the TGI in [1] was over 100 µM; in [2], over 100 µM; in [3], over 100 µM; in assay [4] it was over 10 µM; in [6], over 100 µM; in assay [7], over 100 µM. Further, the TGI in assay [8], in [10] and in [9] was over 100 µM throughout.

Turning to `CCCCCCC/C=C/[C@H]1O[C@]23C(=O)C[C@@]4(C[C@@H](OC5OC(CO)C(O)C(O)C5O)C[C@@H]4[C@H]2C=C1C)OC3=O` (stereo partly drawn), the GI50 in assay [1] is 5.85 µM; in [2], 5.33 µM; in [3], 3.77 µM; in assay [4], 5.05 µM; in assay [6], 4.18 µM; in assay [7] it was 5.67 µM. The figures for the GI50 in [8], in assay [10] and in assay [9] were 3.58 µM, 3.61 µM and 1.31 µM, respectively. Also, the TGI stood at 13.4 µM in assay [1]; 15.1 µM in assay [2]; 11.6 µM in assay [3]; 10.3 µM in assay [4]; 11.9 µM in assay [6]; 26.7 µM in [7]. The TGI in [8] is 8.43 µM; in assay [10] it was 7.57 µM; in assay [9], 14.4 µM.
